Data reported in US4822773A (Merck & Co., Inc., priority 1987, dated 1989).

How the values were obtained:
in vivo = conditions: rat
Experimental: Experiments were performed with rats wherein each animal received an aqueous microenema applied to the rectal cavity. The microenemas contained target drug entity (amount shown in table) in the presence or absence of 5 mg lauroylcholine chloride or palmitoylcholine iodide. Blood levels were monitored and the amount of drug absoreed calculated against intravenous administration and expressed as percent bioavailability.
The amount of drug absorbed is expressed as percent bioavailability versus intravenous administration
Blood was collected and sodium cefoxitin measured. Absorption of sodium cefoxitin is expressed as percent bioavailability versus intravenous administration.

[1] = Small intestinal (duodenal) absorption from aqueous solution in rats, percent bioavailability versus intravenous administration; type: in vivo; conditions: vs intravenous
Experimental: Blood levels were monitored and the amount of polypeptide absorbed calculated against intravenous administration and expressed as percent bioavailability.
Experiments were performed as in Example 5. The solutions contained 10 mg/kg of cefoxitin and 20 mg/kg of absorption promoters. Blood levels of cefoxitin were monitored and the bioavailability of cefoxitin absorbed was calculated against intravenous administration.

A bioavailability (in vivo; Percent Bioavailability (mean ± SD) with Control) of 7 ± 3.5% and a bioavailability ([1]; rat, blood, aqueous solution applied to duodenal region, 0.1 mg polypeptide alone, read-out: Percent Bioavailability (mean ± SD), adjuvant None) of 1% were found for CC(C)[C@@H]1NC(=O)[C@H](CCCCN)NC(=O)[C@@H](Cc2c[nH]c3ccccc23)NC(=O)[C@H](Cc2ccc(O)cc2)NC(=O)[C@H](C)N(C)C(=O)[C@H](Cc2ccccc2)NC1=O [cyclo(N--Me--Ala--Try--DTrp--Lys--Val--Phe)acetate] in this work.

With Cn1c(=O)c2[nH]cnc2n(C)c1=O [Theophylline] the “Absorption of the drug by itself” value (in vivo) was “absorbed well by itself” and the “Percent Bioavailability (mean ± SD) with Control” value (in vivo) was 75 ± 3.3%.

For Nc1ccn([C@@H]2O[C@H](CO)[C@@H](O)[C@@H]2O)c(=O)n1 [Cytarabine], the “Percent Bioavailability (mean ± SD) with Control” value (in vivo) was 0.5 ± 0.1%.

In the case of CO[C@@]1(NC(=O)Cc2cccs2)C(=O)N2C(C(=O)O)=C(COC(N)=O)CS[C@@H]21 [Sodium cefoxitin], the “Percent Bioavailability (mean ± SD) with Control” value (in vivo) is reported as 2 ± 1.1%, the “Sodium Cefoxitin Percent Bioavailability (mean ± SD), compound None” value (in vivo; pH 6) is reported as 2 ± 1.1% and the “Percent Bioavailability (mean ± SD) of cefoxitin, adjuvant None” value ([1]; duodenal solution, 10 mg/kg cefoxitin alone) is reported as 2 ± 1.1%.
